Measurements as given in patent US20100063049A1, “2-CARBOCYCLOAMINO-4-IMIDAZOLYLPYRIMIDINES AS AGENTS FOR THE INHBITION OF CELL PROLIFERATION” (priority 2006, published 2010).

Biological target: T1, CDK2/Cyclin E (Homo sapiens, UniProt P24941)
T1 construct: The open reading frames of CDK2 and Cyclin E were isolated by reverse transcriptase-PCR; made in house; host or cells: Spodoptera frugiperda SF21 insect cells (baculovirus co-infection); GST-Rb substrate made in E. coli BL21(DE3) pLysS
Assay: in vitro kinase assay (Scintillation Proximity Assay), incorporation of [γ-33-P]-ATP into GST-Rb
Type: biochemical
Settings: CDK2/Cyclin E partially-purified enzyme, GST-Rb substrate, 0.2 μM ATP, room temperature 60 mins; read-out: CDK2 inhibitory activity IC50
Protocol: The compounds were tested in an in vitro kinase assay in 96 well format using Scintillation Proximity Assay (SPA—obtained from Amersham) for measuring incorporation of [γ-33-P]-Adenosine Triphosphate into a test substrate (GST-Retinoblastoma protein; GST-Rb). In each well was placed the compound to be tested (diluted in DMSO and water to correct concentrations) and in control wells either roscovitine as an inhibitor control or DMSO as a positive control. […]
The plates were sealed with Topseal-S plate sealers, left for two hrs then spun at 2500 rpm, 1124×g., for 5 mins. The plates were read on a Topcount for 30 seconds per well. […]
E. coli paste was resuspended in 10 ml/g of NETN buffer (50 mM Tris pH 7.5, 120 mM NaCl, 1 mM EDTA, 0.5% v/v NP-40, 1 mM PMSF, 1 ug/ml leupeptin, 1 ug/ml aprotinin and 1 ug/ml pepstatin) and sonicated for 2×45 seconds per 100 ml homogenate. […] The final product was analysed by Sodium Dodeca Sulfate (SDS) PAGE (Polyacrylamide gel) using 8-16% Tris-Glycine gels (Novex, San Diego, USA).
The open reading frames of CDK2 and Cyclin E were isolated by reverse transcriptase-PCR using HeLa cell and activated T cell mRNA as a template and cloned into the insect expression vector pVL1393 (obtained from Invitrogen 1995 catalogue number: V1392-20). […]

IC50: 159 nM
Compound: Cc1ncc(-c2ccnc(N[C@H]3CC[C@H](N(C)C)CC3)n2)n1C(C)C [Example 4, trans-N′,N′-Dimethyl-N-[4-(2-methyl-3-propan-2-yl-imidazol-4-yl)pyrimidin-2-yl]cyclohexane-1,4-diamine]
